Data published in patent US20240043427A1 (Gilead Sciences, Inc., priority 2020, published 2024).

Legend:
[1] = biological target: T1, CD73 (Homo sapiens (Human), UniProt P21589); assay type: biochemical; settings: 1 mM NaH2PO4 in enzyme buffer, CD73 0.3 nM, AMP 15 uM
[2] = biological target: T1, CD73; assay: MDA-MB-231 Cell Based CD73 Activity Assay (DMEM); settings: MDA-MB-231-GFP cells, DMEM medium with 10% human plasma, 200 uM AMP

T1 sequence (P21589 27-574): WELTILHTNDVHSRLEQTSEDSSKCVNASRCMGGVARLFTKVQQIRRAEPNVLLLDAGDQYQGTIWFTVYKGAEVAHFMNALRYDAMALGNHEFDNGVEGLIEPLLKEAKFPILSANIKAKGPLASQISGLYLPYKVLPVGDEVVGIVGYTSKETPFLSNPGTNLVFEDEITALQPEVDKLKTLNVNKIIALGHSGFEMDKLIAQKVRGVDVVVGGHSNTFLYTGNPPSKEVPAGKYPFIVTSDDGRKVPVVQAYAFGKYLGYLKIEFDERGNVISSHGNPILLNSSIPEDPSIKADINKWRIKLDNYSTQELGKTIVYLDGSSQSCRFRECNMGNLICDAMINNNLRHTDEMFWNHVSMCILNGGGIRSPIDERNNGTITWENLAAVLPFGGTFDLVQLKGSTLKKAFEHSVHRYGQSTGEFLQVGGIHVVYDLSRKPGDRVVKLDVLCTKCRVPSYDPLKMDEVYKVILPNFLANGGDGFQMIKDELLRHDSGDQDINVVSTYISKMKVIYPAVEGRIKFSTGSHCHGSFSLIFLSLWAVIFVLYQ

Row | IC50 [1] | EC50 [2] | SMILES
1 | 3.6 nM | 23.1 nM | O=c1[nH]cc(-c2cc(N3CC[C@@H](C(F)(F)F)C3)c3nccn3n2)c(=O)[nH]1 [Example 175, (R)-5-(8-(3-(trifluoromethyl)pyrrolidin-1-yl)imidazo[1,2-b]pyridazin-6-yl)pyrimidine-2,4(1H,3H)-dione]
2 | 11 nM | 59.5 nM | O=c1[nH]cc(-c2cc(N3CCC(F)(F)C3)c3ncc(F)n3n2)c(=O)[nH]1 [Example 176, 5-(8-(3,3-difluoropyrrolidin-1-yl)-3-fluoroimidazo[1,2-b]pyridazin-6-yl)pyrimidine-2,4(1H,3H)-dione]
3 | 7.27 nM | 33.3 nM | O=c1[nH]cc(-c2cc(N3C[C@@H](F)[C@@H](F)C3)c3ncc(F)n3n2)c(=O)[nH]1 [Example 177, 5-(8-((3R,4S)-3,4-difluoropyrrolidin-1-yl)-3-fluoroimidazo[1,2-b]pyridazin-6-yl)pyrimidine-2,4(1H,3H)-dione]
4 | 13.5 nM | 57.4 nM | CC1(C(F)(F)F)CCN(c2cc(-c3c[nH]c(=O)[nH]c3=O)nn3ccnc23)C1 (stereo not drawn) [Example 185, 5-[8-[3-methyl-3-(trifluoromethyl)pyrrolidin-1-yl]imidazo[1,2-b]pyridazin-6-yl]-1H-pyrimidine-2,4-dione]
5 | 7.57 nM | 22.3 nM | C[C@@]1(F)CCN(c2cc(-c3c[nH]c(=O)[nH]c3=O)nn3ccnc23)C1 [Example 186, 5-[8-[(3R)-3-fluoro-3-methyl-pyrrolidin-1-yl]imidazo[1,2-b]pyridazin-6-yl]-1H-pyrimidine-2,4-dione]
6 | 2.76 nM | 12.6 nM | O=c1[nH]cc(-c2cc(N3CC[C@@H](OC(F)(F)F)C3)c3nccn3n2)c(=O)[nH]1 [Example 187, 5-[8-[(3R)-3-(trifluoromethoxy)pyrrolidin-1-yl]imidazo[1,2-b]pyridazin-6-yl]-1H-pyrimidine-2,4-dione]
7 | 17.5 nM | 62.5 nM | COCC1(F)CCN(c2cc(-c3c[nH]c(=O)[nH]c3=O)nn3ccnc23)C1 (stereo not drawn) [Example 188, 5-[8-[3-fluoro-3-(methoxymethyl)pyrrolidin-1-yl]imidazo[1,2-b]pyridazin-6-yl]-1H-pyrimidine-2,4-dione]
8 | 18.1 nM | 49 nM | COC1(C(F)(F)F)CCN(c2cc(-c3c[nH]c(=O)[nH]c3=O)nn3ccnc23)C1 (stereo not drawn) [Example 189, 5-[8-[3-methoxy-3-(trifluoromethyl)pyrrolidin-1-yl]imidazo[1,2-b]pyridazin-6-yl]-1H-pyrimidine-2,4-dione]
9 | 3.05 nM | 12.8 nM | O=c1[nH]cc(-c2cc(N3CCC4(CC4)C3)c3nccn3n2)c(=O)[nH]1 [Example 190, 5-[8-(5-azaspiro[2.4]heptan-5-yl)imidazo[1,2-b]pyridazin-6-yl]-1H-pyrimidine-2,4-dione]
10 | 21.8 nM | 45.8 nM | C[C@]1(F)CCN(c2cc(-c3c[nH]c(=O)[nH]c3=O)nn3ccnc23)C1 [Example 191, 5-[8-[(3S)-3-fluoro-3-methyl-pyrrolidin-1-yl]imidazo[1,2-b]pyridazin-6-yl]-1H-pyrimidine-2,4-dione]
11 | 151 nM | 682 nM | C[C@@H]1CN(c2cc(-c3c[nH]c(=O)[nH]c3=O)nn3ccnc23)C[C@H]1C(F)(F)F [Example 193, 5-[8-[(3S,4S)-3-methyl-4-(trifluoromethyl)pyrrolidin-1-yl]imidazo[1,2-b]pyridazin-6-yl]-1H-pyrimidine-2,4-dione]
12 | 3.32 nM | 469 nM | COc1ccc(C2CN(c3cc(-c4c[nH]c(=O)[nH]c4=O)nn4ccnc34)CC2(F)F)cc1 (stereo not drawn) [Example 194, 5-[8-[3,3-difluoro-4-(4-methoxyphenyl)pyrrolidin-1-yl]imidazo[1,2-b]pyridazin-6-yl]-1H-pyrimidine-2,4-dione]
13 | 62.9 nM | 218 nM | N#CC1(F)CCN(c2cc(-c3c[nH]c(=O)[nH]c3=O)nn3ccnc23)C1 (stereo not drawn) [Example 195, 1-[6-(2,4-dioxo-1H-pyrimidin-5-yl)imidazo[1,2-b]pyridazin-8-yl]-3-fluoro-pyrrolidine-3-carbonitrile]
14 | 98.6 nM | 243 nM | O=c1[nH]cc(-c2cc(N3CC[C@H](OC(F)(F)F)C3)c3nccn3n2)c(=O)[nH]1 [Example 196, 5-[8-[(3S)-3-(trifluoromethoxy)pyrrolidin-1-yl]imidazo[1,2-b]pyridazin-6-yl]-1H-pyrimidine-2,4-dione]
15 | 1.11 nM | 6.39 nM | O=c1[nH]cc(-c2cc(N3C[C@H](OC(F)F)C(F)(F)C3)c3nccn3n2)c(=O)[nH]1 [Example 201, 5-[8-[(4S)-4-(difluoromethoxy)-3,3-difluoro-pyrrolidin-1-yl]imidazo[1,2-b]pyridazin-6-yl]-1H-pyrimidine-2,4-dione]
16 | 1.04 nM | 4.25 nM | O=c1[nH]cc(-c2cc(N3CC(OC(F)F)C(F)(F)C3)c3nccn3n2)c(=O)[nH]1 (stereo not drawn) [Example 202, 5-[8-[4-(difluoromethoxy)-3,3-difluoro-pyrrolidin-1-yl]imidazo[1,2-b]pyridazin-6-yl]-1H-pyrimidine-2,4-dione]
17 | 3.03 nM | 10.3 nM | COc1ncc(-c2cc(N3CC(OCC(F)(F)F)C(F)(F)C3)c3nccn3n2)c(OC)n1 (stereo not drawn) [Example 203, 8-[3,3-difluoro-4-(2,2,2-trifluoroethoxy)pyrrolidin-1-yl]-6-(2,4-dimethoxypyrimidin-5-yl)imidazo[1,2-b]pyridazine]
18 | 1.63 nM | 9.31 nM | CN(C)C(=O)COC1CN(c2cc(-c3c[nH]c(=O)[nH]c3=O)nn3ccnc23)CC1(F)F (stereo not drawn) [Example 204, 2-[1-[6-(2,4-dioxo-1H-pyrimidin-5-yl)imidazo[1,2-b]pyridazin-8-yl]-4,4-difluoro-pyrrolidin-3-yl]oxy-N,N-dimethyl-acetamide]
19 | 4.42 nM | 16 nM | CC(=O)NC1CN(c2cc(-c3c[nH]c(=O)[nH]c3=O)nn3ccnc23)CC1(F)F (stereo not drawn) [Example 205, N-[1-[6-(2,4-dioxo-1H-pyrimidin-5-yl)imidazo[1,2-b]pyridazin-8-yl]-4,4-difluoro-pyrrolidin-3-yl]acetamide]
20 | 4.97 nM | 28.7 nM | O=C(NC1CN(c2cc(-c3c[nH]c(=O)[nH]c3=O)nn3ccnc23)CC1(F)F)OCC(F)(F)F (stereo not drawn) [Example 206, 2,2,2-trifluoroethyl N-[1-[6-(2,4-dioxo-1H-pyrimidin-5-yl)imidazo[1,2-b]pyridazin-8-yl]-4,4-difluoro-pyrrolidin-3-yl]carbamate]
21 | 6.05 nM | 20.3 nM | O=C(NC1CN(c2cc(-c3c[nH]c(=O)[nH]c3=O)nn3ccnc23)CC1(F)F)OCC1CC1 (stereo not drawn) [Example 207, cyclopropylmethyl N-[1-[6-(2,4-dioxo-1H-pyrimidin-5-yl)imidazo[1,2-b]pyridazin-8-yl]-4,4-difluoro-pyrrolidin-3-yl]carbamate]
22 | 5.88 nM | 25.4 nM | O=C(NC1CN(c2cc(-c3c[nH]c(=O)[nH]c3=O)nn3ccnc23)CC1(F)F)OCC(F)F (stereo not drawn) [Example 208, 2,2-difluoroethyl N-[1-[6-(2,4-dioxo-1H-pyrimidin-5-yl)imidazo[1,2-b]pyridazin-8-yl]-4,4-difluoro-pyrrolidin-3-yl]carbamate]
23 | 2.8 nM | 24.2 nM | O=C(NC1CN(c2cc(-c3c[nH]c(=O)[nH]c3=O)nn3ccnc23)CC1(F)F)c1ccccc1 (stereo not drawn) [Example 209, N-[1-[6-(2,4-dioxo-1H-pyrimidin-5-yl)imidazo[1,2-b]pyridazin-8-yl]-4,4-difluoro-pyrrolidin-3-yl]benzamide]
24 | 4.59 nM | 24.4 nM | O=C(NC1CN(c2cc(-c3c[nH]c(=O)[nH]c3=O)nn3ccnc23)CC1(F)F)c1ccc(C(F)(F)F)cc1 (stereo not drawn) [Example 210, N-[1-[6-(2,4-dioxo-1H-pyrimidin-5-yl)imidazo[1,2-b]pyridazin-8-yl]-4,4-difluoro-pyrrolidin-3-yl]-4-(trifluoromethyl)benzamide]
25 | 2.33 nM | 10.8 nM | O=C(NC1CN(c2cc(-c3c[nH]c(=O)[nH]c3=O)nn3ccnc23)CC1(F)F)c1ccc(C(F)(F)F)cn1 (stereo not drawn) [Example 211, N-[1-[6-(2,4-dioxo-1H-pyrimidin-5-yl)imidazo[1,2-b]pyridazin-8-yl]-4,4-difluoro-pyrrolidin-3-yl]-5-(trifluoromethyl)pyridine-2-carboxamide]
26 | 1.41 nM | 12.1 nM | O=c1[nH]cc(-c2cc([C@H]3C[C@@H]3c3ccc(C(F)F)cc3)n3nccc3n2)c(=O)[nH]1 [Example 215, 5-(7-((1S,2S)-2-(4-(difluoromethyl)phenyl)cyclopropyl)pyrazolo[1,5-a]pyrimidin-5-yl)pyrimidine-2,4(1H,3H)-dione]
27 | 8.01 nM | 31.7 nM | CC1(C)CN(c2cc(-c3c[nH]c(=O)[nH]c3=O)nc3ccnn23)CC1(F)F [Example 216, 5-(7-(3,3-difluoro-4,4-dimethylpyrrolidin-1-yl)pyrazolo[1,5-a]pyrimidin-5-yl)pyrimidine-2,4(1H,3H)-dione]
28 | 111 nM | 584 nM | CCc1cnn2c(N3CC(C)(C)C(F)(F)C3)cc(-c3c[nH]c(=O)[nH]c3=O)nc12 [Example 217, 5-(7-(3,3-difluoro-4,4-dimethylpyrrolidin-1-yl)-3-ethylpyrazolo[1,5-a]pyrimidin-5-yl)pyrimidine-2,4(1H,3H)-dione]
29 | 3.29 nM | 455 nM | O=c1[nH]cc(-c2cc(N3CC(F)(F)C4(CC4)C3)n3ncc(Cl)c3n2)c(=O)[nH]1 [Example 218, 5-(3-chloro-7-(7,7-difluoro-5-azaspiro[2.4]heptan-5-yl)pyrazolo[1,5-a]pyrimidin-5-yl)pyrimidine-2,4(1H,3H)-dione]
30 | 8.26 nM | 62.6 nM | CC1(C)CN(c2cc(-c3c[nH]c(=O)[nH]c3=O)nc3c(F)cnn23)CC1(F)F [Example 219, 5-(7-(3,3-difluoro-4,4-dimethylpyrrolidin-1-yl)-3-fluoropyrazolo[1,5-a]pyrimidin-5-yl)pyrimidine-2,4(1H,3H)-dione]
